PubChem BioAssay (NCI)
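The compound was tested at five concentrations on cells cultured in 96-well plates, with a 48-hour exposure period. TGI is the concentration that stops growth completely.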

Columns and labels:
Test in all cases: DTP human tumour cell line panel, 48 h
786-0 renal = system: 786-0 renal
HOP-62 NSCLC = system: HOP-62 NSCLC
HOP-92 NSCLC = system: HOP-92 NSCLC
K-562 leukemia = system: K-562 leukemia
M14 melanoma = system: M14 melanoma
OVCAR-3 ovarian = system: OVCAR-3 ovarian
RPMI-8226 leukemia = system: RPMI-8226 leukemia
RXF 393 renal = system: RXF 393 renal
SK-MEL-2 melanoma = system: SK-MEL-2 melanoma
SK-OV-3 ovarian = system: SK-OV-3 ovarian
T-47D breast = system: T-47D breast

S=C1NC2=C(CSC/C2=C\c2ccccc2)C(c2ccccc2)N1 (centres undefined)
TGI (786-0 renal): > 100 µM | TGI (HOP-62 NSCLC): > 100 µM | TGI (HOP-92 NSCLC): 97.4 µM | TGI (K-562 leukemia): > 100 µM | TGI (M14 melanoma): > 100 µM | TGI (OVCAR-3 ovarian): > 100 µM | TGI (RPMI-8226 leukemia): > 100 µM | TGI (RXF 393 renal): > 100 µM | TGI (SK-MEL-2 melanoma): > 100 µM | TGI (SK-OV-3 ovarian): > 100 µM | TGI (T-47D breast): > 100 µM

C(=C\c1ccccc1)/COc1ccccc1C(N1CCOCC1)n1nc2ccccc2n1 (centres undefined)
TGI (786-0 renal): 15.8 µM | TGI (HOP-62 NSCLC): 20.4 µM | TGI (HOP-92 NSCLC): 21.9 µM | TGI (K-562 leukemia): 4.26 µM | TGI (M14 melanoma): 13.5 µM | TGI (OVCAR-3 ovarian): 7.04 µM | TGI (RPMI-8226 leukemia): 12.2 µM | TGI (RXF 393 renal): 19.4 µM | TGI (SK-MEL-2 melanoma): 24.2 µM | TGI (SK-OV-3 ovarian): 81.1 µM | TGI (T-47D breast): 43.8 µM

CCOC(=O)NC(Nc1c(F)c(F)c(F)c(F)c1F)(C(F)(F)F)C(F)(F)F
TGI (786-0 renal): > 100 µM | TGI (HOP-62 NSCLC): > 100 µM | TGI (HOP-92 NSCLC): > 100 µM | TGI (K-562 leukemia): > 100 µM | TGI (M14 melanoma): > 100 µM | TGI (OVCAR-3 ovarian): > 100 µM | TGI (RPMI-8226 leukemia): > 100 µM | TGI (RXF 393 renal): > 100 µM | TGI (SK-MEL-2 melanoma): > 100 µM | TGI (SK-OV-3 ovarian): > 100 µM | TGI (T-47D breast): > 100 µM

CN(C)c1ccc(Cc2cc3c(O)ccc(O)c3cc(Cc3ccc(N(C)C)cc3)c2=O)cc1
TGI (786-0 renal): 32.1 µM | TGI (HOP-62 NSCLC): > 100 µM | TGI (HOP-92 NSCLC): 14.5 µM | TGI (K-562 leukemia): 10.6 µM | TGI (M14 melanoma): 34.2 µM | TGI (OVCAR-3 ovarian): 54.2 µM | TGI (RPMI-8226 leukemia): > 84.9 µM | TGI (RXF 393 renal): 31.9 µM | TGI (SK-MEL-2 melanoma): > 68.9 µM | TGI (SK-OV-3 ovarian): > 100 µM | TGI (T-47D breast): 26.8 µM

CC(C)C1=C(O)C2=C(C(=O)C1=O)C1(C)CCCC(C)(C)C1C(O)C2OC=O (centres undefined)
TGI (786-0 renal): 19 µM | TGI (HOP-62 NSCLC): > 100 µM | TGI (HOP-92 NSCLC): 20.1 µM | TGI (K-562 leukemia): > 100 µM | TGI (M14 melanoma): 29.1 µM | TGI (OVCAR-3 ovarian): 25.9 µM | TGI (RPMI-8226 leukemia): 6.9 µM | TGI (RXF 393 renal): 20.2 µM | TGI (SK-MEL-2 melanoma): 28.6 µM | TGI (SK-OV-3 ovarian): 27.1 µM | TGI (T-47D breast): 27.9 µM

COc1ccc(N2C(=O)C3c4[nH]c5ccccc5c4C4CCCCCCCCCC4C3C2=O)cc1 (centres undefined)
TGI (HOP-62 NSCLC): > 10 µM | TGI (K-562 leukemia): > 10 µM | TGI (M14 melanoma): > 10 µM | TGI (OVCAR-3 ovarian): > 10 µM | TGI (RPMI-8226 leukemia): > 10 µM | TGI (RXF 393 renal): > 10 µM | TGI (SK-MEL-2 melanoma): > 10 µM | TGI (SK-OV-3 ovarian): > 10 µM | TGI (T-47D breast): > 10 µM

COP(=O)(OC)C(Nc1ccc(Cc2ccc(NC(c3ccco3)P(=O)(OC)OC)cc2)cc1)c1ccco1 (centres undefined)
TGI (786-0 renal): > 100 µM | TGI (HOP-62 NSCLC): 20.4 µM | TGI (HOP-92 NSCLC): 35.1 µM | TGI (K-562 leukemia): > 100 µM | TGI (M14 melanoma): > 100 µM | TGI (OVCAR-3 ovarian): > 100 µM | TGI (RXF 393 renal): 19.9 µM | TGI (SK-MEL-2 melanoma): 35.7 µM | TGI (SK-OV-3 ovarian): 73.6 µM | TGI (T-47D breast): > 100 µM

O=[N+]([O-])c1ccc2c(c1)c(N=NC(=S)Nc1ccc(Cl)cc1)c(O)n2CN1CCOCC1
TGI (786-0 renal): 16.7 µM | TGI (HOP-92 NSCLC): 21.2 µM | TGI (M14 melanoma): 21.7 µM | TGI (OVCAR-3 ovarian): 17.6 µM | TGI (RXF 393 renal): 19.9 µM | TGI (SK-MEL-2 melanoma): 26.3 µM | TGI (SK-OV-3 ovarian): 26.2 µM | TGI (T-47D breast): 20.8 µM

COc1ccc(C2c3cc4c(cc3OC(NCCO)C2C)OCO4)cc1 (centres undefined)
TGI (HOP-62 NSCLC): > 100 µM | TGI (HOP-92 NSCLC): 86.1 µM | TGI (K-562 leukemia): 58.8 µM | TGI (M14 melanoma): 84.6 µM | TGI (OVCAR-3 ovarian): 36.4 µM | TGI (RPMI-8226 leukemia): 55.3 µM | TGI (RXF 393 renal): 75.2 µM | TGI (SK-MEL-2 melanoma): 50.8 µM | TGI (SK-OV-3 ovarian): 87.6 µM | TGI (T-47D breast): > 100 µM

O=C1c2cccc(O)c2C(=O)c2c(OC3OC(CO)C(O)C(O)C3O)cccc21 (centres undefined)
TGI (786-0 renal): > 100 µM | TGI (HOP-62 NSCLC): > 100 µM | TGI (HOP-92 NSCLC): > 100 µM | TGI (K-562 leukemia): > 100 µM | TGI (M14 melanoma): 51.3 µM | TGI (OVCAR-3 ovarian): > 100 µM | TGI (RPMI-8226 leukemia): > 100 µM | TGI (RXF 393 renal): 97.3 µM | TGI (SK-MEL-2 melanoma): > 100 µM | TGI (SK-OV-3 ovarian): > 100 µM | TGI (T-47D breast): 49.1 µM

Cc1cc(O)c(-c2cc(O)c(C)cc2O)cc1O
TGI (786-0 renal): 8.55 µM | TGI (HOP-62 NSCLC): 32.6 µM | TGI (HOP-92 NSCLC): 6.22 µM | TGI (K-562 leukemia): 4.65 µM | TGI (M14 melanoma): 22.9 µM | TGI (OVCAR-3 ovarian): 5.12 µM | TGI (RPMI-8226 leukemia): 4.07 µM | TGI (RXF 393 renal): 5.93 µM | TGI (SK-MEL-2 melanoma): 33 µM | TGI (SK-OV-3 ovarian): 30.5 µM | TGI (T-47D breast): 5.26 µM

CCOC(=O)C1=CC(C)(C(=O)OCC)Nc2c(nc(N)[nH]c2=O)N1 (centres undefined)
TGI (786-0 renal): > 10 µM | TGI (HOP-62 NSCLC): > 10 µM | TGI (HOP-92 NSCLC): > 10 µM | TGI (K-562 leukemia): > 10 µM | TGI (M14 melanoma): > 10 µM | TGI (OVCAR-3 ovarian): > 10 µM | TGI (RPMI-8226 leukemia): > 10 µM | TGI (RXF 393 renal): > 10 µM | TGI (SK-MEL-2 melanoma): > 10 µM | TGI (SK-OV-3 ovarian): > 10 µM | TGI (T-47D breast): > 10 µM

CCOC(=O)C1CCC(=O)N1C(=O)c1ccccc1Cl (centres undefined)
TGI (786-0 renal): > 100 µM | TGI (HOP-62 NSCLC): > 100 µM | TGI (HOP-92 NSCLC): > 100 µM | TGI (K-562 leukemia): > 100 µM | TGI (M14 melanoma): > 100 µM | TGI (OVCAR-3 ovarian): > 100 µM | TGI (RPMI-8226 leukemia): > 100 µM | TGI (RXF 393 renal): > 100 µM | TGI (T-47D breast): > 100 µM

COc1cc2[nH]c(-c3ccccc3)cc(=O)c2c(OC)c1OC
TGI (786-0 renal): > 100 µM | TGI (HOP-62 NSCLC): > 100 µM | TGI (K-562 leukemia): > 100 µM | TGI (M14 melanoma): > 100 µM | TGI (OVCAR-3 ovarian): > 100 µM | TGI (RPMI-8226 leukemia): > 100 µM | TGI (RXF 393 renal): > 100 µM | TGI (SK-MEL-2 melanoma): > 100 µM | TGI (SK-OV-3 ovarian): > 100 µM | TGI (T-47D breast): > 100 µM

CN(C)CCCNC(=O)c1c(O)c2ccccc2n(C)c1=O
TGI (786-0 renal): > 100 µM | TGI (HOP-62 NSCLC): > 100 µM | TGI (HOP-92 NSCLC): 80.7 µM | TGI (K-562 leukemia): > 100 µM | TGI (OVCAR-3 ovarian): > 100 µM | TGI (RPMI-8226 leukemia): > 100 µM | TGI (RXF 393 renal): > 100 µM | TGI (SK-MEL-2 melanoma): > 100 µM | TGI (SK-OV-3 ovarian): > 100 µM | TGI (T-47D breast): > 100 µM

O=C1C(C(O)(C(F)(F)F)C(F)(F)F)CCC1C(O)(C(F)(F)F)C(F)(F)F (centres undefined)
TGI (786-0 renal): > 38.8 µM | TGI (HOP-92 NSCLC): 0.245 µM | TGI (K-562 leukemia): > 100 µM | TGI (M14 melanoma): 47 µM | TGI (OVCAR-3 ovarian): > 100 µM | TGI (RPMI-8226 leukemia): 13.5 µM | TGI (RXF 393 renal): 26 µM | TGI (SK-MEL-2 melanoma): 11 µM | TGI (SK-OV-3 ovarian): > 100 µM | TGI (T-47D breast): 2.13 µM

COc1cc(/C=C2\CCC(C)/C(=C\c3cc(OC)c(OC)c(OC)c3)C2=O)cc(OC)c1OC (centres undefined)
TGI (786-0 renal): > 100 µM | TGI (HOP-62 NSCLC): 9.3 µM | TGI (HOP-92 NSCLC): > 100 µM | TGI (K-562 leukemia): 6.26 µM | TGI (M14 melanoma): 4.42 µM | TGI (RPMI-8226 leukemia): 0.901 µM | TGI (RXF 393 renal): 6.36 µM | TGI (SK-MEL-2 melanoma): 3.37 µM | TGI (SK-OV-3 ovarian): 62 µM | TGI (T-47D breast): > 100 µM

COC(=O)[C@H](Cc1ccccc1)NC(=O)N(CCC#N)CCN(C(=O)N[C@@H](Cc1ccccc1)C(=O)OC)c1ccccc1
TGI (786-0 renal): 50.8 µM | TGI (HOP-62 NSCLC): > 100 µM | TGI (HOP-92 NSCLC): 39.4 µM | TGI (M14 melanoma): 55.1 µM | TGI (OVCAR-3 ovarian): 43.4 µM | TGI (RPMI-8226 leukemia): 43.9 µM | TGI (RXF 393 renal): 37.7 µM | TGI (SK-MEL-2 melanoma): 39.3 µM | TGI (SK-OV-3 ovarian): > 100 µM | TGI (T-47D breast): 41.6 µM

CCN(CC)CCO/N=C1\CC[C@H]2[C@@H]3CCc4cc(OC)ccc4[C@H]3CC[C@]12C
TGI (786-0 renal): 3.27 µM | TGI (HOP-62 NSCLC): 3.73 µM | TGI (HOP-92 NSCLC): 7.25 µM | TGI (K-562 leukemia): 2.53 µM | TGI (M14 melanoma): 1.82 µM | TGI (OVCAR-3 ovarian): 15.5 µM | TGI (RPMI-8226 leukemia): 4.26 µM | TGI (RXF 393 renal): 3.92 µM | TGI (SK-MEL-2 melanoma): 5.07 µM | TGI (T-47D breast): 7.13 µM

CC1(C)OC2COC3([C@@H]4OC(C)(C)O[C@@H]4CO)OC(C)(C)OC3C2O1 (some centres undefined)
TGI (786-0 renal): > 100 µM | TGI (HOP-62 NSCLC): > 100 µM | TGI (HOP-92 NSCLC): > 100 µM | TGI (K-562 leukemia): > 100 µM | TGI (M14 melanoma): > 100 µM | TGI (OVCAR-3 ovarian): > 100 µM | TGI (RPMI-8226 leukemia): > 100 µM | TGI (RXF 393 renal): > 100 µM | TGI (SK-MEL-2 melanoma): > 100 µM | TGI (T-47D breast): > 100 µM
